In ChEMBL document CHEMBL1909046, “DrugMatrix in vitro pharmacology data”:

Assays:
[1] = target: T1, Alpha-1B adrenergic receptor (Rattus norvegicus, UniProt P15823); assay: DRUGMATRIX: Alpha-1B adrenergic receptor radioligand binding (ligand: prazosin); format: cell membranes, Wistar, Liver, Membrane; conditions: Not Active = under 50% inhibition at 10 µM
T1 sequence (P15823 whole entry): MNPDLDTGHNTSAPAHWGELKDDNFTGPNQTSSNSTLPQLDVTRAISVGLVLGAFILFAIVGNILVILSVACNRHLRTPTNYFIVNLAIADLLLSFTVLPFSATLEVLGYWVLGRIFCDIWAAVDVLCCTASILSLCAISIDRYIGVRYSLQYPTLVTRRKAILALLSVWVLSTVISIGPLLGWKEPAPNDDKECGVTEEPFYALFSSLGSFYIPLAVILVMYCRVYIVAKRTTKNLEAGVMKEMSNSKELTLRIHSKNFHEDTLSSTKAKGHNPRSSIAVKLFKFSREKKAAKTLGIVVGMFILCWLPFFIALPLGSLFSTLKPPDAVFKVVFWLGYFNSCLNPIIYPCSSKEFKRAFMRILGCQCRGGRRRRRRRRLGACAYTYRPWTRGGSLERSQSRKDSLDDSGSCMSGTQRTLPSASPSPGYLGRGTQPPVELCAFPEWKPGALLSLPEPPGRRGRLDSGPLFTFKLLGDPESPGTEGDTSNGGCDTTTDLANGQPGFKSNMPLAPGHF

[2] = target: T2, Alpha-1D adrenergic receptor (Homo sapiens, UniProt P25100); format: cell membranes, HEK293, Membrane; conditions: hek293; further: in other assays of this panel Not Active means under 50% inhibition at 10 µM
T2 sequence (P25100 whole entry): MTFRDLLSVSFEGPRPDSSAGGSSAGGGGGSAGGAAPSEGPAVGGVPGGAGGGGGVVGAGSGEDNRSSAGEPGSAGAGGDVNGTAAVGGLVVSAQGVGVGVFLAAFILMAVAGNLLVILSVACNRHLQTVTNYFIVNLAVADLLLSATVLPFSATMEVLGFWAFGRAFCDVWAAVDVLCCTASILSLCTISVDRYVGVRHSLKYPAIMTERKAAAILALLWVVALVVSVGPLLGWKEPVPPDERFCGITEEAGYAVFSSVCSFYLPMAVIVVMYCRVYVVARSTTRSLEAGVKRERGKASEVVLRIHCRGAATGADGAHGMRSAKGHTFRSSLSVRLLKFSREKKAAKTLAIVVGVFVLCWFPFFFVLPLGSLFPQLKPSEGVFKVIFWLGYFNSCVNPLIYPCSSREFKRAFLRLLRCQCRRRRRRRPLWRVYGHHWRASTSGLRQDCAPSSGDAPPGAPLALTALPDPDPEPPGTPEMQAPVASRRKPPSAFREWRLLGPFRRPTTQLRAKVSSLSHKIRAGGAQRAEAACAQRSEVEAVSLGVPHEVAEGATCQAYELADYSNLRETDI

[3] = target: Beta-3 adrenergic receptor (Homo sapiens, UniProt P13945); assay: DRUGMATRIX: Adrenergic beta3 radioligand binding (ligand: [125I] Cyanopindolol); format: cell membranes, HEK293, Membrane; conditions: hek293; Not Active = under 50% inhibition at 10 µM
Chain of Beta-3 adrenergic receptor (P13945 whole entry): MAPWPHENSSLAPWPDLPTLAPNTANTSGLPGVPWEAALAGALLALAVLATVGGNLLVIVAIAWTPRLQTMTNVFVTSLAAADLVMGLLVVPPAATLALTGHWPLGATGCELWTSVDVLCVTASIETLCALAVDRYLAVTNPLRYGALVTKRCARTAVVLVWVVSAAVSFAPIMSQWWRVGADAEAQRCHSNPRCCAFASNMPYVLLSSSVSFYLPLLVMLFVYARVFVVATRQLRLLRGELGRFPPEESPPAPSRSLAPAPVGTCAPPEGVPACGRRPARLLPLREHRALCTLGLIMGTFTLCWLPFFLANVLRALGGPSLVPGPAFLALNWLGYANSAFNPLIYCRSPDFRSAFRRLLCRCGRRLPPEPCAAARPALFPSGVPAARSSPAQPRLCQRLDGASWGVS

[4] = target: 5-hydroxytryptamine receptor 2B (Homo sapiens, UniProt P41595); format: cell membranes, CHO-K1, Membrane; conditions: cho-k1; further: in other assays of this panel Not Active means under 50% inhibition at 10 µM
Chain of 5-hydroxytryptamine receptor 2B (P41595 whole entry): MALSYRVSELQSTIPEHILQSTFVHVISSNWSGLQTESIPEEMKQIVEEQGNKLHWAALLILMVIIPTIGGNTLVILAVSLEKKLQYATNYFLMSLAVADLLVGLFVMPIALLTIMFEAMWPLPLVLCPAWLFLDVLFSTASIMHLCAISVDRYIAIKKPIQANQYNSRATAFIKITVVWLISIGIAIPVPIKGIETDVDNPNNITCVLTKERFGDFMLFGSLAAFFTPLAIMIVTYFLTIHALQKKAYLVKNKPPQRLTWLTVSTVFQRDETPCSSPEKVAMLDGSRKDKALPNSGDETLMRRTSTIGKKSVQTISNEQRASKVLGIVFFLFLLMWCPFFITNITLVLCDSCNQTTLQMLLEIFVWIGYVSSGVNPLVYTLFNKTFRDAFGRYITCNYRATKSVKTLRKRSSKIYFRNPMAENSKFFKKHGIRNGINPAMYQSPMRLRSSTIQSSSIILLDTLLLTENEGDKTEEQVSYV

[5] = target: Vasopressin V1a receptor (Homo sapiens, UniProt P37288); format: cell membranes, Membrane; conditions: hek293; further: in other assays of this panel Not Active means under 50% inhibition at 10 µM
Chain of Vasopressin V1a receptor (P37288 whole entry): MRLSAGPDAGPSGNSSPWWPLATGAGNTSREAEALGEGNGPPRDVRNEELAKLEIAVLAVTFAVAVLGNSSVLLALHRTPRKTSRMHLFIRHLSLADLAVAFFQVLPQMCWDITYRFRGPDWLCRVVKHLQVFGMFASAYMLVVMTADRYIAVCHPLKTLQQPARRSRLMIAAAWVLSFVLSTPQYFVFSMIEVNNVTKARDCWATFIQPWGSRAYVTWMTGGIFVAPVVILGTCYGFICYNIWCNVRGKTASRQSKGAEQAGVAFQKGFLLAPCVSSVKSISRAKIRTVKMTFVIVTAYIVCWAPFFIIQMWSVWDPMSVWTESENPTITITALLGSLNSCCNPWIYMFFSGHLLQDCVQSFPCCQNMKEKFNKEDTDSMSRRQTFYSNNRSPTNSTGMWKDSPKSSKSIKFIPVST

[6] = DRUGMATRIX: GABAA, Chloride Channel, TBOB radioligand binding (ligand: [3H] TBOB); format: cell membranes, Rattus norvegicus, Wistar, Cerebral cortex, Membrane; conditions: Not Active = under 50% inhibition at 10 µM
[7] = DRUGMATRIX: Glutamate, AMPA radioligand binding (ligand: [3H] AMPA); format: cell membranes, Rattus norvegicus, Wistar, Cerebral cortex, Membrane; conditions: Not Active = under 50% inhibition at 10 µM
[8] = target: T3, Neuropeptide Y receptor type 2 (Homo sapiens, UniProt P49146); format: cell membranes, Membrane; conditions: kan-ts; further: in other assays of this panel Not Active means under 50% inhibition at 10 µM
T3 sequence (P49146 whole entry): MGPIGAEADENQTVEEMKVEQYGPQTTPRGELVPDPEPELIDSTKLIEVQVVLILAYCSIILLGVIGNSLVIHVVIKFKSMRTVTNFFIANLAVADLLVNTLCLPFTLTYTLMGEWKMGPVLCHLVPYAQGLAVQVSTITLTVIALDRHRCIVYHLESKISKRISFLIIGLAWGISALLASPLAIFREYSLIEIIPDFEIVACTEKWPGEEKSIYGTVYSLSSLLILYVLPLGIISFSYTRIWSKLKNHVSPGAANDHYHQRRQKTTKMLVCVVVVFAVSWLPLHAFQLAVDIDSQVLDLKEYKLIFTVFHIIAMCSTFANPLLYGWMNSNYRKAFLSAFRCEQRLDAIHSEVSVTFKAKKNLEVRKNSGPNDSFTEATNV

[9] = target: Mitogen-activated protein kinase 3 (Homo sapiens, UniProt P27361); assay: DRUGMATRIX: Protein Serine/Threonine Kinase, ERK1 enzyme inhibition (substrate: Myelin Basic Protein); design: species or system Escherichia coli; conditions: Not Active = under 50% inhibition at 10 µM
Chain of Mitogen-activated protein kinase 3 (P27361 whole entry): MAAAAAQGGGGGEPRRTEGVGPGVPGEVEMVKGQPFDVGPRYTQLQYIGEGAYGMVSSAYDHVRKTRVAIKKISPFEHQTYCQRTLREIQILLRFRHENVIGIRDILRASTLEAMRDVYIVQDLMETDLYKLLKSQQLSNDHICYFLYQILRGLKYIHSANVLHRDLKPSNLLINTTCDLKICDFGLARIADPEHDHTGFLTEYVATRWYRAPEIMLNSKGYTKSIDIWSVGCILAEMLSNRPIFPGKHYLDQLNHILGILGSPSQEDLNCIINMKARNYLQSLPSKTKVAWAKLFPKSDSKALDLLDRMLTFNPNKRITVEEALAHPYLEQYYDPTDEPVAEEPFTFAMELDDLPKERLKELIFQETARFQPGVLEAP

[10] = target: Receptor tyrosine-protein kinase erbB-2 (Homo sapiens, UniProt P04626); assay: biochemical; format: cell-based, Insect cells; conditions: insect cells
Chain of Receptor tyrosine-protein kinase erbB-2 (P04626 whole entry): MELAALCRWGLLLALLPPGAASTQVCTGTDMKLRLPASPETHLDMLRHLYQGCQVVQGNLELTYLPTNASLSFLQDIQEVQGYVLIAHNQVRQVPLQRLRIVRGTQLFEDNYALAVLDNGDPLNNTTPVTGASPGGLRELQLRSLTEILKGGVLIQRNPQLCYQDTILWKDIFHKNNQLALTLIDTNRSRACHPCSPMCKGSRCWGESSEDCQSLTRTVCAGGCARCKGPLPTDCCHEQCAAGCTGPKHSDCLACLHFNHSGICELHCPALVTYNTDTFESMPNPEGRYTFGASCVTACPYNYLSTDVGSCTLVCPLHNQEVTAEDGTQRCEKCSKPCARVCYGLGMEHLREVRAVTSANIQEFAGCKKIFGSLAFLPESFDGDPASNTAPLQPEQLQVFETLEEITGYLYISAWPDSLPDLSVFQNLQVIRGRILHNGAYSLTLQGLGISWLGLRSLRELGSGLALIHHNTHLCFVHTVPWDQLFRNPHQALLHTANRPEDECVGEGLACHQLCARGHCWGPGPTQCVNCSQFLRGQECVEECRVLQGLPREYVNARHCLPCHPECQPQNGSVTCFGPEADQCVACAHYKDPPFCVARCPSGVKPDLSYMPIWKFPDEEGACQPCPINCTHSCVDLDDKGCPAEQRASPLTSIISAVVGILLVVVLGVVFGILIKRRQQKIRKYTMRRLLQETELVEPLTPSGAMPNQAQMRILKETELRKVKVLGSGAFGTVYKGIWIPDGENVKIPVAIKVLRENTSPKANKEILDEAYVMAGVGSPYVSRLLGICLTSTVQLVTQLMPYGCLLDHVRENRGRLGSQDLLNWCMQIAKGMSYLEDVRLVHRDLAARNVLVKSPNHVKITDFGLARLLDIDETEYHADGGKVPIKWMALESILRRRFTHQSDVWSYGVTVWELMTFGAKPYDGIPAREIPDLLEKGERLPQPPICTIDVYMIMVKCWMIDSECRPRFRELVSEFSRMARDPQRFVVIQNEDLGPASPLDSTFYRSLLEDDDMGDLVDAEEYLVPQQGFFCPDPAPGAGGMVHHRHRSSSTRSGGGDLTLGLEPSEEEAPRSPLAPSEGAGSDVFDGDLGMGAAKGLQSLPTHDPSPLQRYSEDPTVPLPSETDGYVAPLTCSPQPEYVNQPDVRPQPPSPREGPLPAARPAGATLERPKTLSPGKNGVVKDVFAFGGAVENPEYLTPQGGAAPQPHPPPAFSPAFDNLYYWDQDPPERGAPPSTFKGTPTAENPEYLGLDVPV

[11] = target: Tyrosine-protein kinase Lck (Homo sapiens, UniProt P06239); assay: DRUGMATRIX: Protein Tyrosine Kinase, LCK enzyme inhibition (substrate: Poly(Glu:Tyr)); format: cell-based, Insect cells; conditions: insect cells; Not Active = under 50% inhibition at 10 µM
Chain of Tyrosine-protein kinase Lck (P06239 whole entry): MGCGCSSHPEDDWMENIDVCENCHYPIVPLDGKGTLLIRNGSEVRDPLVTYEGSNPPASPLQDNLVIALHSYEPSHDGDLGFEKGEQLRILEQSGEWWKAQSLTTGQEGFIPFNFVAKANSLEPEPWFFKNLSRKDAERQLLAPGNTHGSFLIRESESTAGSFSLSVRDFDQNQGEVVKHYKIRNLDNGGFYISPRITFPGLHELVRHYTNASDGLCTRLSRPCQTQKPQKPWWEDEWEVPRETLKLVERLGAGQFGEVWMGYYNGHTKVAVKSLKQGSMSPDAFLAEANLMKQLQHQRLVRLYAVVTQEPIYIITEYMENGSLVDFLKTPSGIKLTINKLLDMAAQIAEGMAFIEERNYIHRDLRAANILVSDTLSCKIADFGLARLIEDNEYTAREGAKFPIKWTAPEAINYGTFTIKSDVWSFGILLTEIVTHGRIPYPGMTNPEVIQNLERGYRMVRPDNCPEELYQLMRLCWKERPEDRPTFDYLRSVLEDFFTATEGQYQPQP

[12] = target: T4, Glucocorticoid receptor (Homo sapiens, UniProt P04150); conditions: hela s3; further: in other assays of this panel Not Active means under 50% inhibition at 10 µM
T4 sequence (P04150 whole entry): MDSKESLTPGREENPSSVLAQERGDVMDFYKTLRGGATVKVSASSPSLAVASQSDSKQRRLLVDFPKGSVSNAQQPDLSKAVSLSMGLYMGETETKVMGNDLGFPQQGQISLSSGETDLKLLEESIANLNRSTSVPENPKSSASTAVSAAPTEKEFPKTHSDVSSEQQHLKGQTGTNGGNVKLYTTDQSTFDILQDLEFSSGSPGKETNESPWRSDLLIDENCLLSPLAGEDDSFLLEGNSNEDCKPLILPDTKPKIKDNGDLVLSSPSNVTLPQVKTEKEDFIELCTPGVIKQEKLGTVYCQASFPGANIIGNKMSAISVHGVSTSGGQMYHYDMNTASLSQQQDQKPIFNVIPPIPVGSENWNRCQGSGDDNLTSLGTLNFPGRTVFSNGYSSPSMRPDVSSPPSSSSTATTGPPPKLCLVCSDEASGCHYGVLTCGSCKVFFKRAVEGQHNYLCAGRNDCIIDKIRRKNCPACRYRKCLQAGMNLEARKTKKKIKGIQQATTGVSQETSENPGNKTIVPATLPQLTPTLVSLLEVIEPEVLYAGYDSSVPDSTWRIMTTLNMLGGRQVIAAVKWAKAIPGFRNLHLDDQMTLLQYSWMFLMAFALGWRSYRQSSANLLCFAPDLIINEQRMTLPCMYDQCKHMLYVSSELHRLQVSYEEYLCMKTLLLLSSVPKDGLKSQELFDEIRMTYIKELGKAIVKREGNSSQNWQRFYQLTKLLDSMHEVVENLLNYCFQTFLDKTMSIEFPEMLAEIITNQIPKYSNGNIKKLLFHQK

O=C1CCc2cc(OCCCCc3nnnn3C3CCCCC3)ccc2N1 [CILOSTAZOL]
Not Active: IC50 [1] | IC50 [2] | IC50 [3] | IC50 [4] | IC50 [5] | IC50 [6] | Ki [6] | IC50 [7] | Ki [7] | IC50 [8] | IC50 [9] | IC50 [10] | IC50 [11] | IC50 [12]
